Data from patent US12208108B2, “Drug targets of delayed aging and human brain diseases” (Texas Tech University System, priority 2016, dated 2025).
Marks after values point to notes of the source that are not given here.

Tested on: Human Neuroblastoma (SHSY5Y) cells
Experiment: mRNA levels by Sybr-Green real-time RT-PCR
Format: cell-based
Procedure: mRNA levels of mitochondrial dynamics, mitochondrial biogenesis and synaptic genes. Using the reagent TriZol (Invitrogen), the inventors isolated total RNA from all DDQ-treated and untreated cells. mRNA levels of mitochondrial dynamic (Drp1, Fis1, Mfn1 and Mfn2), mitochondrial biogenesis genes (PGC1α, Nrf1, Nrf2 and TFAM) and synaptic genes (PSD95, synaptophysin, synapsin 1, synapsin 2, synaptobrevin 1, synaptobrevin 2, synaptopodin, and GAP43) were measured by using Sybr-Green chemistry-based quantitative real time RT-PCR.
FIG. 3 illustrates the experimental strategy of the cell culture work and including treatments. The cells were grown in a medium (1:1 DMEM and F12, 10% FBS, lx penicillin, and streptomycin) at 37° C. in a humified incubator with a 5% CO2 environment. After seeding were allowed to grow for 24-48 hrs or until 80% confluence in six-well plates and used for experiments. The inventors used five different groups of cells—(1) untreated SHSY5Y cells; (2) SHSY5Y cells treated with DDQ (250 nM final concentration) for 24 hrs; (3) SHSY5Y cells incubated with Aβ peptide 1-42 (20 uM final concentration) for 6 hrs; (4) SHSY5Y cells treated Aβ for 6 hrs+DDQ for 24 hrs and (5) SHSY5Y cells treated DDQ for 24 hrs and Aβ for 6 hrs. Half a million SHSY5Y cells were suspended per well into six-well plates. The inventors used Aβ peptide 1-42 and DDQ 250 nM in the experiments. After treatments, the inventors harvested cells, conducted experiments to measure the levels mRNA using Sybr-Green based real-time RT-PCR, proteins using immunoblotting and immunofluorescence analysis and cell viability using MTT assay. The inventors counted the number of mitochondria by electron microscopy.
Quantification of mitochondrial dynamics, biogenesis and synaptic genes expression using real-time RT-PCR. Using the reagent TriZol (Invitrogen), the inventors isolated total RNA from control and experimental groups (FIG. 3). Using primer express Software (Applied Biosystems), the inventors designed the oligonucleotide primers for the housekeeping genes β-actin, mitochondrial structural genes; fission (Drp1 and Fis1); fusion genes (MFN1, MFN2); mitochondrial biogenesis genes PGC1a, Nrf1, Nrf2 and TFAM; and synaptic genes (PSD95, synaptophysin, synapsin 1, synapsin 2, synaptobrevin 1, synaptobrevin 2, synaptopodin, and GAP43). Using SYBR-Green chemistry-based quantitative real-time RT-PCR, the inventors measured mRNA expression of the genes mentioned above as described by Manczak et al..

[1] = Aβ + DDQ (Aβ1-42 20 μM 6 hrs, then DDQ 24 hrs) vs untreated cells
[2] = Aβ + DDQ (Aβ1-42 6 hrs, then DDQ 24 hrs) vs Aβ treated cells
[3] = DDQ 250 nM 24 hrs vs untreated cells
[4] = DDQ + Aβ (DDQ 24 hrs, then Aβ1-42 6 hrs) vs Aβ treated cells
[5] = DDQ + Aβ (DDQ 24 hrs, then Aβ1-42 6 hrs) vs untreated cells

## CCOP(=O)(OCC)C(NCCc1ccc(O)c(O)c1)c1ccnc2ccccc12 (stereo not shown) [DDQ, diethyl(3,4-dihydroxyphenethylamine)(quinolin-4-yl)methylphosphonate]
[1]
  Drp1 mRNA fold changes: 1.9* fold
  Fis1 mRNA fold changes: −1.2 fold
  GAP43 mRNA fold changes: 1.1 fold
  Mfn1 mRNA fold changes: 1.4 fold
  Mfn2 mRNA fold changes: 1.3 fold
  Nrf1 mRNA fold changes: −1.7* fold
  Nrf2 mRNA fold changes: −1.3 fold
  PGC1a mRNA fold changes: −1.8* fold
  PSD95 mRNA fold changes: −1.4* fold
  Synapsin1 mRNA fold changes: 1.1 fold
  Synapsin2 mRNA fold changes: 1.1 fold
  Synaptobrevin1 mRNA fold changes: −1.1 fold
  Synaptobrevin2 mRNA fold changes: 1.0 fold
  Synaptophysin mRNA fold changes: −2.4* fold
  Synaptopodin mRNA fold changes: −1.1 fold
  TFAM mRNA fold changes: −2.0* fold
[2]
  Drp1 mRNA fold changes: −1.7* fold
  Fis1 mRNA fold changes: −2.0* fold
  GAP43 mRNA fold changes: 1.7* fold
  Mfn1 mRNA fold changes: 3.3** fold
  Mfn2 mRNA fold changes: 3.4** fold
  Nrf1 mRNA fold changes: 2.6 fold
  Nrf2 mRNA fold changes: 2.1 fold
  PGC1a mRNA fold changes: 2.5 fold
  PSD95 mRNA fold changes: 1.8* fold
  Synapsin1 mRNA fold changes: 2.1* fold
  Synapsin2 mRNA fold changes: 2.4* fold
  Synaptobrevin1 mRNA fold changes: 2.0* fold
  Synaptobrevin2 mRNA fold changes: 2.1* fold
  Synaptophysin mRNA fold changes: 1.6* fold
  Synaptopodin mRNA fold changes: 2.0* fold
  TFAM mRNA fold changes: 2.3 fold
[3]
  Drp1 mRNA fold changes: −2.2* fold
  Drp1 mRNA levels, fold decrease: 2.2 fold
  Fis1 mRNA fold changes: −4.4*** fold
  Fis1 mRNA levels, fold decrease: 4.4 fold
  GAP43 mRNA fold changes: 1.2 fold
  Mfn1 mRNA fold changes: 1.7 fold
  Mfn2 mRNA fold changes: 2.3 fold
  Nrf1 mRNA fold changes: 1.9 fold
  Nrf2 mRNA fold changes: 2.7 fold
  PGC1a mRNA fold changes: 1.5 fold
  PSD95 mRNA fold changes: 1.4 fold
  Synapsin1 mRNA fold changes: 1.0 fold
  Synapsin2 mRNA fold changes: 1.7 fold
  Synaptobrevin1 mRNA fold changes: 1.0 fold
  Synaptobrevin2 mRNA fold changes: 1.3 fold
  Synaptophysin mRNA fold changes: 1.4 fold
  Synaptopodin mRNA fold changes: 1.0 fold
  TFAM mRNA fold changes: 1.7 fold
[4]
  Drp1 mRNA fold changes: −4.6*** fold
  Fis1 mRNA fold changes: −2.5* fold
  GAP43 mRNA fold changes: 1.7* fold
  Mfn1 mRNA fold changes: 2.9** fold
  Mfn2 mRNA fold changes: 2.9** fold
  Nrf1 mRNA fold changes: 4.9 fold
  Nrf2 mRNA fold changes: 2.6 fold
  PGC1a mRNA fold changes: 3.9 fold
  PSD95 mRNA fold changes: 2.1* fold
  Synapsin1 mRNA fold changes: 2.5* fold
  Synapsin2 mRNA fold changes: 2.9** fold
  Synaptobrevin1 mRNA fold changes: 1.7* fold
  Synaptobrevin2 mRNA fold changes: 2.3* fold
  Synaptophysin mRNA fold changes: 2.4* fold
  Synaptopodin mRNA fold changes: 2.1* fold
  TFAM mRNA fold changes: 3.2 fold
[5]
  Drp1 mRNA fold changes: −2.1* fold
  Fis1 mRNA fold changes: −1.3 fold
  GAP43 mRNA fold changes: 1.1 fold
  Mfn1 mRNA fold changes: 1.2 fold
  Mfn2 mRNA fold changes: 1.1 fold
  Nrf1 mRNA fold changes: 1.1 fold
  Nrf2 mRNA fold changes: −1.1 fold
  PGC1a mRNA fold changes: −1.1 fold
  PSD95 mRNA fold changes: −1.2 fold
  Synapsin1 mRNA fold changes: 1.3 fold
  Synapsin2 mRNA fold changes: 1.8* fold
  Synaptobrevin1 mRNA fold changes: −1.4 fold
  Synaptobrevin2 mRNA fold changes: 1.0 fold
  Synaptophysin mRNA fold changes: −1.6* fold
  Synaptopodin mRNA fold changes: −1.1 fold
  TFAM mRNA fold changes: −1.5* fold
